According to ChEMBL document CHEMBL4257449, “New N-(2-phenyl-4-oxo-1,3-thiazolidin-3-yl)-1,2-benzothiazole-3-carboxamides and acetamides as antimicrobial agents” (2017):
In brackets after ≈: the same amount, converted by molar mass.

Test system: Pseudomonas aeruginosa
Assay: Bactericidal activity against Pseudomonas aeruginosa ATCC 27853 incubated for 24 hrs followed by serial sub-cultivation and measured after 24 hrs by microdilution method
Assay type: functional
Details: not given

Structure (SMILES)	MBC99.5
O=C(Cc1nsc2ccccc12)NN1C(=O)CSC1c1ccc(Cl)cc1 (configuration not stated)	74.4 ×10⁻² umol/ml

Test system: Aspergillus versicolor
Assay: Antifungal activity against Aspergillus versicolor ATCC 11730 after 72 hrs by serial dilution method
Assay type: functional
Details: ATCC 11730, 72 h

MIC	Structure (SMILES)
100 µM (≈ 40.4 µg/mL)	O=C(Cc1nsc2ccccc12)NN1C(=O)CSC1c1ccc(Cl)cc1 (configuration not stated)

Test system: Aspergillus niger
Assay: Fungicidal activity against Aspergillus niger ATCC 6275 incubated for 72 hrs followed by serial sub-cultivation for 72 hrs and measured after 72 hrs by serial dilution method
Assay type: functional
Details: not given

Structure (SMILES)	MFC99.5
O=C(Cc1nsc2ccccc12)NN1C(=O)CSC1c1ccc(Cl)cc1 (configuration not stated)	37.2 ×10⁻² umol/ml

Test system: Aspergillus fumigatus
Assay: Antifungal activity against Aspergillus fumigatus after 72 hrs by serial dilution method
Assay type: functional
Details: not given

MIC	Structure (SMILES)
372 µM (≈ 150 µg/mL)	O=C(Cc1nsc2ccccc12)NN1C(=O)CSC1c1ccc(Cl)cc1 (configuration not stated)

Test system: Salmonella typhimurium
Assay: Antibacterial activity against Salmonella typhimurium ATCC 13311 after 24 hrs by microdilution method
Assay type: functional, Salmonella enterica subsp. enterica serovar Typhimurium
Details: Salmonella enterica, ATCC 13311, 24 h

MIC	Structure (SMILES)
372 µM (≈ 150 µg/mL)	O=C(Cc1nsc2ccccc12)NN1C(=O)CSC1c1ccc(Cl)cc1 (configuration not stated)

Test system: Candida albicans
Assay: Antifungal activity against Candida albicans after 72 hrs by serial dilution method
Assay type: functional
Details: not given

MIC	Structure (SMILES)
198 µM (≈ 80 µg/mL)	O=C(Cc1nsc2ccccc12)NN1C(=O)CSC1c1ccc(Cl)cc1 (configuration not stated)

Test system: Talaromyces funiculosus
Assay: Fungicidal activity against Penicillium funiculosum ATCC 36839 incubated for 72 hrs followed by serial sub-cultivation for 72 hrs and measured after 72 hrs by serial dilution method
Assay type: functional
Details: not given

Structure (SMILES)	MFC99.5
O=C(Cc1nsc2ccccc12)NN1C(=O)CSC1c1ccc(Cl)cc1 (configuration not stated)	19.8 ×10⁻² umol/ml

Test system: Enterobacter cloacae
Assay: Bactericidal activity against Enterobacter cloacae incubated for 24 hrs followed by serial sub-cultivation and measured after 24 hrs by microdilution method
Assay type: functional
Details: not given

Structure (SMILES)	MBC99.5
O=C(Cc1nsc2ccccc12)NN1C(=O)CSC1c1ccc(Cl)cc1 (configuration not stated)	74.4 ×10⁻² umol/ml

Test system: Staphylococcus aureus
Assay: Antibacterial activity against Staphylococcus aureus ATCC 6538 after 24 hrs by microdilution method
Assay type: functional
Details: ATCC 6538, 24 h

MIC	Structure (SMILES)
198 µM (≈ 80 µg/mL)	O=C(Cc1nsc2ccccc12)NN1C(=O)CSC1c1ccc(Cl)cc1 (configuration not stated)

Test system: Penicillium ochrochloron
Assay: Fungicidal activity against Penicillium ochrochloron ATCC 9112 incubated for 72 hrs followed by serial sub-cultivation for 72 hrs and measured after 72 hrs by serial dilution method
Assay type: functional
Details: not given

Structure (SMILES)	MFC99.5
O=C(Cc1nsc2ccccc12)NN1C(=O)CSC1c1ccc(Cl)cc1 (configuration not stated)	19.8 ×10⁻² umol/ml

Test system: Aspergillus ochraceus
Assay: Antifungal activity against Aspergillus ochraceus ATCC 12066 after 72 hrs by serial dilution method
Assay type: functional
Details: ATCC 12066, 72 h

MIC	Structure (SMILES)
100 µM (≈ 40.4 µg/mL)	O=C(Cc1nsc2ccccc12)NN1C(=O)CSC1c1ccc(Cl)cc1 (configuration not stated)

Test system: Salmonella typhimurium
Assay: Bactericidal activity against Salmonella typhimurium ATCC 13311 incubated for 24 hrs followed by serial sub-cultivation and measured after 24 hrs by microdilution method
Assay type: functional, Salmonella enterica subsp. enterica serovar Typhimurium
Details: not given

Structure (SMILES)	MBC99.5
O=C(Cc1nsc2ccccc12)NN1C(=O)CSC1c1ccc(Cl)cc1 (configuration not stated)	74.4 ×10⁻² umol/ml

Test system: Escherichia coli
Assay: Antibacterial activity against Escherichia coli ATCC 35210 after 24 hrs by microdilution method
Assay type: functional
Details: ATCC 35210, 24 h

MIC	Structure (SMILES)
273 µM (≈ 110 µg/mL)	O=C(Cc1nsc2ccccc12)NN1C(=O)CSC1c1ccc(Cl)cc1 (configuration not stated)

Test system: Listeria monocytogenes
Assay: Bactericidal activity against Listeria monocytogenes NCTC 7973 incubated for 24 hrs followed by serial sub-cultivation and measured after 24 hrs by microdilution method
Assay type: functional
Details: not given

Structure (SMILES)	MBC99.5
O=C(Cc1nsc2ccccc12)NN1C(=O)CSC1c1ccc(Cl)cc1 (configuration not stated)	111.6 ×10⁻² umol/ml

Test system: Pseudomonas aeruginosa
Assay: Antibacterial activity against Pseudomonas aeruginosa ATCC 27853 after 24 hrs by microdilution method
Assay type: functional
Details: ATCC 27853, 24 h

MIC	Structure (SMILES)
372 µM (≈ 150 µg/mL)	O=C(Cc1nsc2ccccc12)NN1C(=O)CSC1c1ccc(Cl)cc1 (configuration not stated)

Test system: Enterobacter cloacae
Assay: Antibacterial activity against Enterobacter cloacae after 24 hrs by microdilution method
Assay type: functional
Details: not given

MIC	Structure (SMILES)
570 µM (≈ 230 µg/mL)	O=C(Cc1nsc2ccccc12)NN1C(=O)CSC1c1ccc(Cl)cc1 (configuration not stated)

Test system: Penicillium ochrochloron
Assay: Antifungal activity against Penicillium ochrochloron ATCC 9112 after 72 hrs by serial dilution method
Assay type: functional
Details: ATCC 9112, 72 h

MIC	Structure (SMILES)
100 µM (≈ 40.4 µg/mL)	O=C(Cc1nsc2ccccc12)NN1C(=O)CSC1c1ccc(Cl)cc1 (configuration not stated)

Test system: Candida albicans
Assay: Fungicidal activity against Candida albicans incubated for 72 hrs followed by serial sub-cultivation for 72 hrs and measured after 72 hrs by serial dilution method
Assay type: functional
Details: not given

Structure (SMILES)	MFC99.5
O=C(Cc1nsc2ccccc12)NN1C(=O)CSC1c1ccc(Cl)cc1 (configuration not stated)	37.2 ×10⁻² umol/ml

Test system: Trichoderma viride
Assay: Fungicidal activity against Trichoderma viride IAM 5061 incubated for 72 hrs followed by serial sub-cultivation for 72 hrs and measured after 72 hrs by serial dilution method
Assay type: functional
Details: not given

Structure (SMILES)	MFC99.5
O=C(Cc1nsc2ccccc12)NN1C(=O)CSC1c1ccc(Cl)cc1 (configuration not stated)	19.8 ×10⁻² umol/ml

Test system: Aspergillus versicolor
Assay: Fungicidal activity against Aspergillus versicolor ATCC 11730 incubated for 72 hrs followed by serial sub-cultivation for 72 hrs and measured after 72 hrs by serial dilution method
Assay type: functional
Details: not given

Structure (SMILES)	MFC99.5
O=C(Cc1nsc2ccccc12)NN1C(=O)CSC1c1ccc(Cl)cc1 (configuration not stated)	19.8 ×10⁻² umol/ml

Test system: Talaromyces funiculosus
Assay: Antifungal activity against Penicillium funiculosum ATCC 36839 after 72 hrs by serial dilution method
Assay type: functional
Details: ATCC 36839, 72 h

MIC	Structure (SMILES)
144 µM (≈ 58.2 µg/mL)	O=C(Cc1nsc2ccccc12)NN1C(=O)CSC1c1ccc(Cl)cc1 (configuration not stated)

Test system: Micrococcus flavus
Assay: Bactericidal activity against Micrococcus flavus ATCC 10240 incubated for 24 hrs followed by serial sub-cultivation and measured after 24 hrs by microdilution method
Assay type: functional
Details: not given

Structure (SMILES)	MBC99.5
O=C(Cc1nsc2ccccc12)NN1C(=O)CSC1c1ccc(Cl)cc1 (configuration not stated)	37.2 ×10⁻² umol/ml

Test system: Aspergillus ochraceus
Assay: Fungicidal activity against Aspergillus ochraceus ATCC 12066 incubated for 72 hrs followed by serial sub-cultivation for 72 hrs and measured after 72 hrs by serial dilution method
Assay type: functional
Details: not given

Structure (SMILES)	MFC99.5
O=C(Cc1nsc2ccccc12)NN1C(=O)CSC1c1ccc(Cl)cc1 (configuration not stated)	19.8 ×10⁻² umol/ml

Test system: Staphylococcus aureus
Assay: Bactericidal activity against Staphylococcus aureus ATCC 6538 incubated for 24 hrs followed by serial sub-cultivation and measured after 24 hrs by microdilution method
Assay type: functional
Details: not given

Structure (SMILES)	MBC99.5
O=C(Cc1nsc2ccccc12)NN1C(=O)CSC1c1ccc(Cl)cc1 (configuration not stated)	37.2 ×10⁻² umol/ml

Test system: Aspergillus fumigatus
Assay: Fungicidal activity against Aspergillus fumigatus incubated for 72 hrs followed by serial sub-cultivation for 72 hrs and measured after 72 hrs by serial dilution method
Assay type: functional
Details: not given

Structure (SMILES)	MFC99.5
O=C(Cc1nsc2ccccc12)NN1C(=O)CSC1c1ccc(Cl)cc1 (configuration not stated)	74.4 ×10⁻² umol/ml

Test system: Listeria monocytogenes
Assay: Antibacterial activity against Listeria monocytogenes NCTC 7973 after 24 hrs by microdilution method
Assay type: functional
Details: NCTC 7973, 24 h

MIC	Structure (SMILES)
744 µM (≈ 301 µg/mL)	O=C(Cc1nsc2ccccc12)NN1C(=O)CSC1c1ccc(Cl)cc1 (configuration not stated)

Test system: Micrococcus flavus
Assay: Antibacterial activity against Micrococcus flavus ATCC 10240 after 24 hrs by microdilution method
Assay type: functional
Details: ATCC 10240, 24 h

MIC	Structure (SMILES)
273 µM (≈ 110 µg/mL)	O=C(Cc1nsc2ccccc12)NN1C(=O)CSC1c1ccc(Cl)cc1 (configuration not stated)

Test system: Bacillus cereus
Assay: Antibacterial activity against Bacillus cereus after 24 hrs by microdilution method
Assay type: functional
Details: not given

MIC	Structure (SMILES)
100 µM (≈ 40.4 µg/mL)	O=C(Cc1nsc2ccccc12)NN1C(=O)CSC1c1ccc(Cl)cc1 (configuration not stated)

Test system: Aspergillus niger
Assay: Antifungal activity against Aspergillus niger ATCC 6275 after 72 hrs by serial dilution method
Assay type: functional
Details: ATCC 6275, 72 h

MIC	Structure (SMILES)
198 µM (≈ 80 µg/mL)	O=C(Cc1nsc2ccccc12)NN1C(=O)CSC1c1ccc(Cl)cc1 (configuration not stated)

Test system: Bacillus cereus
Assay: Bactericidal activity against Bacillus cereus incubated for 24 hrs followed by serial sub-cultivation and measured after 24 hrs by microdilution method
Assay type: functional
Details: not given

Structure (SMILES)	MBC99.5
O=C(Cc1nsc2ccccc12)NN1C(=O)CSC1c1ccc(Cl)cc1 (configuration not stated)	19.8 ×10⁻² umol/ml

Test system: Escherichia coli
Assay: Bactericidal activity against Escherichia coli ATCC 35210 incubated for 24 hrs followed by serial sub-cultivation and measured after 24 hrs by microdilution method
Assay type: functional
Details: not given

Structure (SMILES)	MBC99.5
O=C(Cc1nsc2ccccc12)NN1C(=O)CSC1c1ccc(Cl)cc1 (configuration not stated)	37.2 ×10⁻² umol/ml

Test system: Trichoderma viride
Assay: Antifungal activity against Trichoderma viride IAM 5061 after 72 hrs by serial dilution method
Assay type: functional
Details: IAM 5061, 72 h

MIC	Structure (SMILES)
100 µM (≈ 40.4 µg/mL)	O=C(Cc1nsc2ccccc12)NN1C(=O)CSC1c1ccc(Cl)cc1 (configuration not stated)
